Source: patent publication US4945158A, “Antidiabetic phosphonates” (American Cyanamid Company, priority 1988, dated 1990)

How the values were obtained:
[1] = biological target: T1, fructose-1,6-bisphosphatase (FBP) (Rattus norvegicus, UniProt P19112); assay: FBP inhibition, spectrophotometric assay; assay type: biochemical; settings: inhibition of purified rat liver FBP; 0.02 mM fructose-1,6-bisphosphate, pH 7.4, 30° C.
T1 construct: purified rat liver FBP; from tissue; host or cells: rat liver
T1 sequence (P19112 2-363 limits assumed): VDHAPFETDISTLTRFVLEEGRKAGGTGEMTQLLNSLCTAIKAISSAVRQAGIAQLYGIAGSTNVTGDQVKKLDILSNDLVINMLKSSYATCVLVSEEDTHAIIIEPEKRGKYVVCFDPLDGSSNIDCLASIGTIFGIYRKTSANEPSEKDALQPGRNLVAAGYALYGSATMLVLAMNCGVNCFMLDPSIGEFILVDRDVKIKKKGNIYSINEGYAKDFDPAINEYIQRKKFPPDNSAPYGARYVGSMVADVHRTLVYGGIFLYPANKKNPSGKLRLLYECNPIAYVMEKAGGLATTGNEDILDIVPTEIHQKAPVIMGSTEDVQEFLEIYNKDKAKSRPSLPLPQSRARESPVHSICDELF
Experimental: (§1) The novel compounds of this invention were tested for their ability to stimulate the enzyme 6-phosphofructo-1-kinase ("PFK") and for their ability to inhibit the enzyme fructose-1,6-bisphosphatase ("FBP") using the procedures described below.
Effects on the activity of FBP were determined using a spectrophotometric assay. The assay mixture contained 100 mM tris(hydroxymethyl)aminomethane,hydrochloride ("TRIS-HCl", pH 7.4); 2.5 mM betamercaptoethanol; 2 mM magnesium chloride; 0.05 mM EDTA; 0.2 mM nicotinamide adenine dinucleotide phosphate ("NADP"); 10 U phosphoglucose isomerase; 5 U glucose-6-phosphatedehydrogenase; 0.02 U of purified rat liver FBP; and various concentrations of the test compound, all in a final volume of 1 ml. The mixture was preincubated for 3 minutes at 30° C. and then the reaction was initiated with 0.02 mM fructose-1,6-bisphosphate. The rate of increase in absorbance at 340 nm was measured at 30° C. with a recording spectrophotometer.

[2] = biological target: T2, 6-phosphofructo-1-kinase (PFK) (Rattus norvegicus, UniProt P30835); assay: PFK stimulation, aldolase-coupled spectrophotometric assay; assay type: biochemical; settings: stimulation of purified rat liver 6-phosphofructo-1-kinase; 0.2 mM fructose-6-phosphate, pH 7.3, 30° C.; read-out: PFK ED50
T2 construct: purified rat liver 6-phosphofructo-1-kinase; from tissue; host or cells: rat liver
T2 sequence (P30835 2-780 limits assumed): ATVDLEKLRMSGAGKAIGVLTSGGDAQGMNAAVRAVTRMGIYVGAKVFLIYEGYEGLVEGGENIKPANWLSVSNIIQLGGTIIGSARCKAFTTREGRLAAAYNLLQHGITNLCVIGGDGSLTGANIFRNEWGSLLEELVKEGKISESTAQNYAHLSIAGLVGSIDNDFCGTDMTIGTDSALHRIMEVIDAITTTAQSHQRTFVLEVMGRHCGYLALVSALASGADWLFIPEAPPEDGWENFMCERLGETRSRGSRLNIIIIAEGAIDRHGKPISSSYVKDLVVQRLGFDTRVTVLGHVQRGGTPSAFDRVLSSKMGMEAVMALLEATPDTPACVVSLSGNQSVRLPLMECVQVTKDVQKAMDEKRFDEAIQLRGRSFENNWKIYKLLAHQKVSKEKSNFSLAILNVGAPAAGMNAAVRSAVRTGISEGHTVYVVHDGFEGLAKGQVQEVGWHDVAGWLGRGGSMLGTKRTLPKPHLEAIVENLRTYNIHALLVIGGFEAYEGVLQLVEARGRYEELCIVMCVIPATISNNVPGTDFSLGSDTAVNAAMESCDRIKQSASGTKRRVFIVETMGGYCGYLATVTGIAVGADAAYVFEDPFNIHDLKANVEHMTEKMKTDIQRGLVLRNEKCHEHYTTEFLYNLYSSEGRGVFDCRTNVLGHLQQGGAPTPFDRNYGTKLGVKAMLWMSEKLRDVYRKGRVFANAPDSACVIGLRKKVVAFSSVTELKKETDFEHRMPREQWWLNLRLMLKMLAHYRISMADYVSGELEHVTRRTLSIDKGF
Experimental: as §1
Effects on the activity of PFK were determined using an aldolase-coupled, spectrophotometric assay. The assay mixture contained: […] N-tris-(hydroxymethyl)-methyl-2-aminoethanesulfonic acid, hydrochloride ("TES-HCl", pH 7.3); 1 mM ethylenediaminetetraacetic acid ("EDTA"); 6 mM magnesium chloride; 2.5 mM dithiothreitol; 0.165 mM nicotinamide adenine dinucleotide ("NADH"); 1 mM adenosine triphosphate ("ATP"); 0.04 U aldolase; 0.4 U triose phosphate isomerase; alpha-glycerolphosphate dehydrogenase (1.5 U/ml); 0.1 U of purified rat liver 6-phosphofructo-1-kinase; and various concentrations of the test compound, all in a final volume of 1 ml. The mixture was preincubated for 3 minutes at 30° C. and then the reaction was initiated with 0.2 mM fructose-6-phosphate. The rate of decrease in absorbance at 340 nm was measured at 30° C. with a recording spectrophotometer.

SMILES | IC50 [1] [µM] | EC50 [2] [µM]
O=P(O)(O)C[C@H]1O[C@H](COP(=O)(O)O)[C@@H](O)[C@@H]1O [2,5-Anhydro-1-deoxy-1-phosphono-D-mannitol, 6-(dihydrogen phosphate)] | 58 | 4
O=P(O)(O)C[C@@]1(CO)O[C@H](COP(=O)(O)O)[C@@H](O)[C@@H]1O [2,5-Anhydro-1-deoxy-2-C-(hydroxymethyl)-1-phosphono-D-mannitol, 6-(dihydrogen phosphate)] | 393 | 6
O=P(O)(O)C[C@@H]1O[C@H](COP(=O)(O)O)[C@@H](O)[C@@H]1O [2,5-Anhydro-1-deoxy-1-phosphono-D-glucitol, 6-(dihydrogen phosphate)] | 602 | 20
O=P(O)(O)C[C@]1(CO)O[C@H](COP(=O)(O)O)[C@@H](O)[C@@H]1O [2,5-Anhydro-1-deoxy-2-C-(hydroxymethyl)-1-phosphono-D-glucitol, 6-(dihydrogen phosphate)] | 240 | 12

The next lines start with the values.

IC50 [1] [µM] | EC50 [2] [µM] | SMILES
 | 12 | O=P(O)(O)CCC[C@@H]1O[C@H](COP(=O)(O)O)[C@@H](O)[C@@H]1O [4,7-Anhydro-1,2,3-trideoxy-1-(dihydroxyphosphinyl)-D-gluco-octitol, 8-(dihydrogen phosphate)]
80 | 6 | O=P(O)(O)CC[C@H]1O[C@H](COP(=O)(O)O)[C@@H](O)[C@@H]1O [3,6-Anhydro-1,2-dideoxy-1-phosphono-D-manno-heptitol, 7-(dihydrogen phosphate)]
200 | 27 | O=P(O)(O)CCC[C@H]1O[C@H](COP(=O)(O)O)[C@@H](O)[C@@H]1O [4,7-anhydro-1,2,3-trideoxy-1-(dihydroxyphosphinyl)-D-manno-octitol, 8-(dihydrogen phosphate)]
